Experimental data published in BindingDB's records for doi:10.1021/acs.jmedchem.5b00865 (A.V. Bogatsky Physico-Chemical Institute of The National …, 2015).

Each compound was assayed against Integrin alpha-IIb/beta-3 (Homo sapiens) (assay: Antagonist activity against integrin alpha2bbeta3 open form in human platelet rich plasma assessed as inhibition of ADP-induced platelet aggregation).

Row | IC50 [nM] | SMILES
1 | 25 | O=C(CCNC(=O)c1ccc2c(c1)CNCC2)NC[C@@H](NS(=O)(=O)c1ccccc1)C(=O)O
2 | 670 | CCCCS(=O)(=O)N[C@H](CNC(=O)CCNC(=O)c1ccc2c(c1)CNCC2)C(=O)O
3 | 320 | CCCCS(=O)(=O)N[C@@H](CNC(=O)CCNC(=O)c1ccc2c(c1)CNCC2)C(=O)O
4 | 6.2 | O=C(CCNC(=O)c1ccc2c(c1)CNCC2)NC[C@H](NS(=O)(=O)c1ccccc1)C(=O)O

The compounds below were run against Integrin alpha-IIb/beta-3 (Homo sapiens) (assay: Antagonist activity against integrin alpha2bbeta3 closed form in human platelet rich plasma assessed as inhibition of ADP-induced platelet aggregation).

Row | IC50 [nM] | SMILES
5 | 11 | NCCCC(=O)Nc1ccc2nc(N3CCNCC3)[nH]c(=O)c2c1
6 | 150 | NCCC(=O)Nc1ccc2nc(N3CCNCC3)[nH]c(=O)c2c1
7 | 100 | O=C(Nc1ccc2nc(N3CCNCC3)[nH]c(=O)c2c1)C1CCNCC1
